Source: patent US7932270B2 (Cytokinetics, Inc., priority 2006, dated 2011)

What follows are compounds tested against T1, chicken gizzard smooth muscle myosin subfragment-1 chemically crosslinked to cardiac or skeletal actin (Gallus gallus, UniProt P10587) (assay: Smooth muscle myosin ATPase dose response assay (pyruvate kinase/horseradish peroxidase/pyruvate oxidase-coupled, amplex red fluorescence)). Settings: read-out: IC50 Arithmetic Mean.
T1 construct: chicken gizzard smooth muscle myosin subfragment-1; from tissue; host or cells: chicken gizzard
Type: biochemical
How it was run: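 Chicken gizzard myosin S1 crosslinked to cardiac or skeletal actin, titrated to a set hydrolysis rate; 0.15 mM ATP, 12 mM PIPES pH 7.00, 100 mM KCl, 2 mM MgCl2. Pyruvate kinase/pyruvate oxidase/HRP coupling with amplex red fluorescence; IC50 from 4-parameter fit.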

T1 sequence (P02607 2-151): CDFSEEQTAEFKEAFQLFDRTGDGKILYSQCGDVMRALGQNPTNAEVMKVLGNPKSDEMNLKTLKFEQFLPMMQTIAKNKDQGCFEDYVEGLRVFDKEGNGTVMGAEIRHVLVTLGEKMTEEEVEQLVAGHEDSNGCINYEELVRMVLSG
T1 sequence (P10587 84-789): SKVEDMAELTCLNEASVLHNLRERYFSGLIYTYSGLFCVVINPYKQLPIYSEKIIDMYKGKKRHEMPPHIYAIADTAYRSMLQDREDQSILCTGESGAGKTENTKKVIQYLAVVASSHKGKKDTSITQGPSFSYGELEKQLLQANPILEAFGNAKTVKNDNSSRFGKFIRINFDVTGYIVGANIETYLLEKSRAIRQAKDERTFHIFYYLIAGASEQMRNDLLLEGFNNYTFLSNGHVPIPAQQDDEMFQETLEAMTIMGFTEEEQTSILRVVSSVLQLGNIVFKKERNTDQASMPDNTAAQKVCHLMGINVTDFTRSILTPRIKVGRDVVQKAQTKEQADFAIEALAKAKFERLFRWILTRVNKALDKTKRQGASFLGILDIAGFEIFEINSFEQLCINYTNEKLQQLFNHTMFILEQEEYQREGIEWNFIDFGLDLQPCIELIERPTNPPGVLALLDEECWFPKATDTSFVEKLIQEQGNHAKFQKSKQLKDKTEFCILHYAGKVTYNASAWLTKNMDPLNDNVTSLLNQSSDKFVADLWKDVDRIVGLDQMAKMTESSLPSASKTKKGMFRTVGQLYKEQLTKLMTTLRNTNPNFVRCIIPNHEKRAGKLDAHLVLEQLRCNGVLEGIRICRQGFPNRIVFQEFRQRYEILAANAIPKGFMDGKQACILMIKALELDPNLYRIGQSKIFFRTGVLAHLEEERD

First: Cn1cc(-c2nc(NCCc3cccc(F)c3)c(C(=O)NC[C@H]3CCCN3C(=O)CCCN)cc2F)cn1 [N-{[(2R)-1-(4-aminobutanoyl)pyrrolidin-2-yl]methyl}(5-fluoro-2-{[2-(3-fluorophenyl)ethyl]amino}-6-(1-methylpyrazol-4-yl)(3-pyridyl))carboxamide]
Second: Cn1cc(-c2nc(NCCc3cccc(F)c3)c(C(=O)NC[C@H]3CCCN3C(=O)CCCO)cc2F)cn1 [N-{[(2R)-1-(4-hydroxybutanoyl)pyrrolidin-2-yl]methyl}(5-fluoro-2-{[2-(3-fluorophenyl)ethyl]amino}-6-(1-methylpyrazol-4-yl)(3-pyridyl))carboxamide]
The IC50 of the first is 2.8-fold lower: 0.087 µM for the first, 0.245 µM for the second. The first is the more potent here.

Going from `NCCCC(=O)N1CCCC1CNC(=O)c1cc(F)c(-c2cc[nH]n2)nc1NCCc1cccc(F)c1` [N-{[(2R)-1-(4-aminobutanoyl)pyrrolidin-2-yl]methyl}(5-fluoro-2-{[2-(3-fluorophenyl)ethyl]amino}-6-pyrazol-3-yl(3-pyridyl))carboxamide] to `NCCCC(=O)N1CCC[C@@H]1CNC(=O)c1cc(F)c(-c2cn[nH]c2)nc1NCCc1cccc(F)c1` [N-{[(2R)-1-(4-aminobutanoyl)pyrrolidin-2-yl]methyl}(5-fluoro-2-{[2-(3-fluorophenyl)ethyl]amino}-6-pyrazol-4-yl(3-pyridyl))carboxamide], the IC50 falls from 0.169 µM to 0.047 µM (3.6-fold). The second is the more potent here.

First: N#Cc1ccccc1-c1ccc(C(=O)NC[C@H]2CCCN2C(=O)CCCN)c(NCCc2cccc(F)c2)n1 [N-{[(2R)-1-(4-aminobutanoyl)pyrrolidin-2-yl]methyl}(6-(2-cyanophenyl)-2-{[2-(3-fluorophenyl)ethyl]amino}(3-pyridyl))carboxamide]
Second: N#Cc1ccccc1-c1ccc(C(=O)NC[C@H]2CCCN2C(=O)CCCCN)c(NCCc2cccc(F)c2)n1 [N-{[(2R)-1-(5-aminopentanoyl)pyrrolidin-2-yl]methyl}(6-(2-cyanophenyl)-2-{[2-(3-fluorophenyl)ethyl]amino}(3-pyridyl))carboxamide]
The IC50 of the first is 3.4-fold lower: 0.029 µM for the first, 0.099 µM for the second.

First: N#Cc1ccccc1-c1nc(NCCc2cccc(F)c2)c(C(=O)NC[C@H]2CCCN2C(=O)CCCN)cc1F [N-{[(2R)-1-(4-aminobutanoyl)pyrrolidin-2-yl]methyl}(6-(2-cyanophenyl)-5-fluoro-2-{[2-(3-fluorophenyl)ethyl]amino}(3-pyridyl))carboxamide]
Second: N#Cc1ccccc1-c1ccc(C(=O)NC[C@H]2CCCN2C(=O)CCCO)c(NCCc2cccc(F)c2)n1 [N-{[(2R)-1-(4-hydroxybutanoyl)pyrrolidin-2-yl]methyl}(6-(2-cyanophenyl)-2-{[2-(3-fluorophenyl)ethyl]amino}(3-pyridyl))carboxamide]
The IC50 of the first is 2.2-fold lower: 0.038 µM for the first, 0.085 µM for the second. The first is the more potent here.

First: N#Cc1ccccc1-c1ccc(C(=O)NC[C@H]2CCCN2C(=O)CCCN)c(NCCC2=CCCCC2)n1 [N-{[(2R)-1-(4-aminobutanoyl)pyrrolidin-2-yl]methyl}{6-(2-cyanophenyl)-2-[(2-cyclohex-1-enylethyl)amino](3-pyridyl)}carboxamide]
Second: N#Cc1ccccc1-c1ccc(C(=O)NC[C@H]2CCCN2C(=O)CCCN)c(NCCc2ccccc2)n1 [N-{[(2R)-1-(4-aminobutanoyl)pyrrolidin-2-yl]methyl}{6-(2-cyanophenyl)-2-[(2-phenylethyl)amino](3-pyridyl)}carboxamide]
The IC50 of the first is 2.1-fold higher: 0.133 µM for the first, 0.062 µM for the second.

`N#Cc1ccccc1-c1ccc(C(=O)NC[C@H]2CCC(=O)N2CCCCN)c(NCCc2cccc(F)c2)n1` [N-{[(2R)-1-(4-aminobutyl)-5-oxopyrrolidin-2-yl]methyl}(6-(2-cyanophenyl)-2-{[2-(3-fluorophenyl)ethyl]amino}(3-pyridyl))carboxamide] and `N#Cc1ccccc1-c1ccc(C(=O)NC[C@H]2CCC(=O)N2CCCCCN)c(NCCc2cccc(F)c2)n1` [N-{[(2R)-1-(5-aminopentyl)-5-oxopyrrolidin-2-yl]methyl}(6-(2-cyanophenyl)-2-{[2-(3-fluorophenyl)ethyl]amino}(3-pyridyl))carboxamide] are within 1.5-fold of each other in IC50: 0.0517 µM for the first, 0.039 µM for the second.

First: N#Cc1ccccc1-c1ccc(C(=O)NC[C@H]2CCCC(=O)N2CCCCN)c(NCCc2cccc(F)c2)n1 [N-{[(2R)-1-(4-aminobutyl)-6-oxo(2-piperidyl)]methyl}(6-(2-cyanophenyl)-2-{[2-(3-fluorophenyl)ethyl]amino}(3-pyridyl))carboxamide]
Second: N#Cc1ccccc1-c1ccc(C(=O)NC[C@H]2CCCN2C(=O)[C@@H](N)CCCN)c(NCCc2cccc(F)c2)n1 [N-{[(2R)-1-((2S)-2,5-diaminopentanoyl)pyrrolidin-2-yl]methyl}(6-(2-cyanophenyl)-2-{[2-(3-fluorophenyl)ethyl]amino}(3-pyridyl))carboxamide]
The IC50 of the first is 1.6-fold lower: 0.032 µM for the first, 0.052 µM for the second. The first is the more potent here.

`N#Cc1ccccc1-c1ccc(C(=O)NC[C@H]2CCN2C(=O)CCCO)c(NCCc2cccc(F)c2)n1` [N-{[(2R)-1-(4-hydroxybutanoyl)azetidin-2-yl]methyl}(6-(2-cyanophenyl)-2-{[2-(3-fluorophenyl)ethyl]amino}(3-pyridyl))carboxamide] and `N#Cc1ccccc1-c1ccc(C(=O)NC[C@H]2CCN2C(=O)[C@H](N)CO)c(NCCc2cccc(F)c2)n1` [N-{[(2R)-1-((2R)-2-amino-3-hydroxypropanoyl)azetidin-2-yl]methyl}(6-(2-cyanophenyl)-2-{[2-(3-fluorophenyl)ethyl]amino}(3-pyridyl))carboxamide] are within 1.5-fold of each other in IC50: 0.06 µM for the first, 0.083 µM for the second.

Going from `Cn1cc(-c2ccc(C(=O)NC[C@H]3CCCN3C(=O)CCCO)c(NCCc3cccc(F)c3)n2)cn1` [N-{[(2R)-1-(4-hydroxybutanoyl)pyrrolidin-2-yl]methyl}(2-{[2-(3-fluorophenyl)ethyl]amino}-6-(1-methylpyrazol-4-yl)(3-pyridyl))carboxamide] to `O=C(NC[C@H]1CCCN1C(=O)CCCO)c1ccc(-c2cn[nH]c2)nc1NCCc1cccc(F)c1` [N-{[(2R)-1-(4-hydroxybutanoyl)pyrrolidin-2-yl]methyl}(2-{[2-(3-fluorophenyl)ethyl]amino}-6-pyrazol-4-yl(3-pyridyl))carboxamide], the IC50 falls from 1.46 µM to 0.963 µM (1.5-fold). The second is the more potent here.

First: N#Cc1ccccc1-c1ccc(C(=O)NC[C@H]2CCCCN2C(=O)[C@H](N)CN)c(NCCc2cccc(F)c2)n1 [N-{[(2R)-1-((2R)-2,3-diaminopropanoyl)(2-piperidyl)]methyl}(6-(2-cyanophenyl)-2-{[2-(3-fluorophenyl)ethyl]amino}(3-pyridyl))carboxamide]
Second: N#Cc1ccccc1-c1ccc(C(=O)NC[C@H]2CCCN2C(=O)[C@@H](N)CN)c(NCCc2cccc(F)c2)n1 [N-{[(2R)-1-((2S)-2,3-diaminopropanoyl)pyrrolidin-2-yl]methyl}(6-(2-cyanophenyl)-2-{[2-(3-fluorophenyl)ethyl]amino}(3-pyridyl))carboxamide]
The IC50 of the first is 2.7-fold higher: 0.161 µM for the first, 0.059 µM for the second. The second is the more potent here.

`N#Cc1ccccc1-c1ccc(C(=O)NC[C@H]2CCCCN2C(=O)[C@H](N)CCN)c(NCCc2cccc(F)c2)n1` [N-{[(2R)-1-((2R)-2,4-diaminobutanoyl)(2-piperidyl)]methyl}(6-(2-cyanophenyl)-2-{[2-(3-fluorophenyl)ethyl]amino}(3-pyridyl))carboxamide] and `N#Cc1ccccc1-c1ccc(C(=O)NC[C@H]2CCCCN2C(=O)[C@H](N)CCCN)c(NCCc2cccc(F)c2)n1` [N-{[(2R)-1-((2R)-2,5-diaminopentanoyl)(2-piperidyl)]methyl}(6-(2-cyanophenyl)-2-{[2-(3-fluorophenyl)ethyl]amino}(3-pyridyl))carboxamide] are within 1.5-fold of each other in IC50: 0.399 µM for the first, 0.456 µM for the second.

Going from `C[C@@H](N)C(=O)N1CCCC[C@@H]1CNC(=O)c1ccc(-c2ccccc2C#N)nc1NCCc1cccc(F)c1` [N-{[(2R)-1-((2R)-2-aminopropanoyl)(2-piperidyl)]methyl}(6-(2-cyanophenyl)-2-{[2-(3-fluorophenyl)ethyl]amino}(3-pyridyl))carboxamide] to `C[C@@H](N)C(=O)N1CCC[C@@H]1CNC(=O)c1ccc(-c2ccccc2C#N)nc1NCCc1cccc(F)c1` [N-{[(2R)-1-((2R)-2-aminopropanoyl)pyrrolidin-2-yl]methyl}(6-(2-cyanophenyl)-2-{[2-(3-fluorophenyl)ethyl]amino}(3-pyridyl))carboxamide], the IC50 falls from 0.261 µM to 0.166 µM (1.6-fold). The second is the more potent here.

Compared with `N#Cc1ccccc1-c1ccc(C(=O)NC[C@H]2CCCCN2C(=O)[C@@H](N)CCCN)c(NCCc2cccc(F)c2)n1` [N-{[(2R)-1-((2S)-2,5-diaminopentanoyl)(2-piperidyl)]methyl}(6-(2-cyanophenyl)-2-{[2-(3-fluorophenyl)ethyl]amino}(3-pyridyl))carboxamide], `N#Cc1ccccc1-c1ccc(C(=O)NC[C@H]2CCN2C(=O)[C@@H](N)CCCN)c(NCCc2cccc(F)c2)n1` [N-{[(2R)-1-((2S)-2,5-diaminopentanoyl)azetidin-2-yl]methyl}(6-(2-cyanophenyl)-2-{[2-(3-fluorophenyl)ethyl]amino}(3-pyridyl))carboxamide] is 5.7-fold higher in IC50: 0.048 µM for the first, 0.274 µM for the second. The first is the more potent here.

`Cn1cc(-c2nc(NCCc3cccc(F)c3)c(C(=O)NC[C@H]3CCCN3C(=O)[C@@H](N)CCCN)cc2F)cn1` [N-{[(2R)-1-((2S)-2,5-diaminopentanoyl)pyrrolidin-2-yl]methyl}(5-fluoro-2-{[2-(3-fluorophenyl)ethyl]amino}-6-(1-methylpyrazol-4-yl)(3-pyridyl))carboxamide] and `Cn1cc(-c2nc(NCCc3cccc(F)c3)c(C(=O)NC[C@H]3CCCN3C(=O)[C@@H](N)CO)cc2F)cn1` [N-{[(2R)-1-((2S)-2-amino-3-hydroxypropanoyl)pyrrolidin-2-yl]methyl}(5-fluoro-2-{[2-(3-fluorophenyl)ethyl]amino}-6-(1-methylpyrazol-4-yl)(3-pyridyl))carboxamide] are within 1.5-fold of each other in IC50: 0.078 µM for the first, 0.072 µM for the second.

For `N#Cc1ccccc1-c1ccc(C(=O)NC[C@H]2CCN2C(=O)[C@@H](N)CO)c(NCCc2cccc(F)c2)n1` [N-{[(2R)-1-((2S)-2-amino-3-hydroxypropanoyl)azetidin-2-yl]methyl}(6-(2-cyanophenyl)-2-{[2-(3-fluorophenyl)ethyl]amino}(3-pyridyl))carboxamide], the IC50 was 0.088 µM.
